According to ChEMBL document CHEMBL1201862, “PubChem BioAssay data set” (2004):
Calls of active or inactive are those of the source.

How the values were obtained:
[1] = target: T1, Short transient receptor potential channel 4 (Mus musculus, UniProt Q9QUQ5); assay: mouse TRPC4 channel inhibitors, dose response, cell-based, HEK293 TRPC4/mu-opioid, Fluo-4 calcium (AID 434942); type: functional;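 also: potency of inhibitors blocking the TRPC4 calcium response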
T1 sequence (Q9QUQ5 whole entry): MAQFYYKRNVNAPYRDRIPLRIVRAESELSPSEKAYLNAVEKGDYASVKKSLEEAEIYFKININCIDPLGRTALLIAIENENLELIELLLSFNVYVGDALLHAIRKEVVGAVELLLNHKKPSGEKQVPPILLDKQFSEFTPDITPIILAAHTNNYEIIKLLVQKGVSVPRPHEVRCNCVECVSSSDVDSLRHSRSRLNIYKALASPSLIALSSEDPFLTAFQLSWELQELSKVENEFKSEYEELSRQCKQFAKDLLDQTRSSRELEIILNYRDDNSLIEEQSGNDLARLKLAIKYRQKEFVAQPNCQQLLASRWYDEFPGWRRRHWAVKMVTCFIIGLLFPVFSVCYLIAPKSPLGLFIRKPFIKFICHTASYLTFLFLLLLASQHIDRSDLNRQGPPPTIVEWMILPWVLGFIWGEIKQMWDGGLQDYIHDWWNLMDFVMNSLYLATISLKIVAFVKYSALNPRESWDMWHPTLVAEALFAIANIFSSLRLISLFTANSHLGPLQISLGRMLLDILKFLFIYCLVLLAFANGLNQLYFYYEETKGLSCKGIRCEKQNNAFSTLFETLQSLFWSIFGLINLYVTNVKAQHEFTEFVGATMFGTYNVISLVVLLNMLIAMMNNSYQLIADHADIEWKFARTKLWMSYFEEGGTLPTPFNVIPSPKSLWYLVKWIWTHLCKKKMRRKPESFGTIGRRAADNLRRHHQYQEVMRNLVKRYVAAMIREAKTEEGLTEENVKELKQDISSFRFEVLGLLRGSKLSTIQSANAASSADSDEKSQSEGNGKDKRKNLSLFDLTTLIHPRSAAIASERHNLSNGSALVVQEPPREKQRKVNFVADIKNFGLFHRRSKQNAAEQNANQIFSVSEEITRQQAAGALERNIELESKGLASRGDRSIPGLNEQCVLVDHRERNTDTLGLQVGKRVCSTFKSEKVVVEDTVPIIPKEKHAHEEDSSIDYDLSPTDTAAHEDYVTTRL

[2] = target: Delta-type opioid receptor (Homo sapiens, UniProt P41143); assay: Counterscreen for agonists of heterodimerization of the mu 1 (OPRM1) and delta 1 (OPRD1) opioid receptors: Luminescence-based cell-based high throughput dose response assay to identify agonists of OPRD1 homodimerization. [Related pubchem assays (depositor defined):AID504326, AID504355, AID504692, AID504904, AID504905]; type: functional
Mu-type opioid receptor = Mu-type opioid receptor (Homo sapiens, UniProt P35372); assay: Counterscreen for agonists of heterodimerization of the mu 1 (OPRM1) and delta 1 (OPRD1) opioid receptors: Luminescence-based cell-based high throughput dose response assay to identify agonists of OPRM1 homodimerization.; type: functional;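 also: U2OS cells expressing OPRM1 and beta-arrestin as split beta-galactosidase partners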
[3] = target: 5-hydroxytryptamine receptor 5A (Homo sapiens, UniProt P47898); assay: Counterscreen for agonists of OPRM1-OPRD1 heterodimerization: luminescence-based cell-based high throughput dose response assay to identify agonists of 5-hydroxytryptamine (serotonin) 5A receptor (HTR5A). [Related pubchem assays (depositor defined):AID504326, AID504355, AID504692, AID504904, AID504905]; type: functional
Sequence of 5-hydroxytryptamine receptor 5A (P47898 whole entry): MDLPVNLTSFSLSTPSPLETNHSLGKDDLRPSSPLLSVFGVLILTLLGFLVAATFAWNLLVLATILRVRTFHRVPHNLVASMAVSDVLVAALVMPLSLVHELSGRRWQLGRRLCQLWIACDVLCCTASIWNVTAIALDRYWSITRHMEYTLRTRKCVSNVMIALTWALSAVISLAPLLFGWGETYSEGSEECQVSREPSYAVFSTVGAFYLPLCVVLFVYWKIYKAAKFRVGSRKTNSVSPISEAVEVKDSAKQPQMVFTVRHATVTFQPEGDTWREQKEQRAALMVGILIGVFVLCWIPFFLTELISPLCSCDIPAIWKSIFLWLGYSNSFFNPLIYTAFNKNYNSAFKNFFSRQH

[4] = NIH-3T3 fibroblast cytotoxicity, dose response, cytotoxicity control, cell-based, fluorescence, Alamar Blue, secondary assay (AID 2327); type: functional;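 also: NIH-3T3 mouse fibroblasts cultured with fluconazole at 8 µg/mL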
cells [5] = type: functional, cell-based
[6] = C. albicans growth with fluconazole, confirmation, fluorescence, retest (AID 2467); type: functional, cell-based
[7] = inhibitors of intracellular T. cruzi replication, confirmation, NIH3T3 host cells, beta-gal luminescence (AID 2044); type: functional, cell-based;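 also: intracellular parasites grown in NIH/3T3 mouse fibroblasts as host cells; luminescent beta-galactosidase reporter signal from transgenic T. cruzi replicating inside host cells; inhibitors lower the luminescence signal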
cells [8] = type: functional, cell-based; remark: listed apart in the source
[9] = cytotoxicity toward NIH3T3 fibroblasts, dose response, counter-screen, cell-based, ATP luminescence, mouse fibroblasts (AID 2010); type: functional;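 also: cells exposed to compound for about 90 hours before reading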
[10] = cytotoxicity in HEK-293T cells, dose response, cytotoxicity control for TCR NF-kB inhibitor project, luminescence, T-cell screen hits (AID 489026); type: functional, cell-based;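 also: cells exposed to compound about 14 hours before the viability readout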
[11] = target: Heat shock protein HSP 90-alpha (Homo sapiens, UniProt P07900); type: functional, organism-based
INS1 = assay: beta cell apoptosis inhibitors, cytokine rescue, dose response, luminescence, retest (AID 449756); type: functional, cell-based; conditions: Rattus norvegicus;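 also: cell death triggered by IL-1 beta plus TNF-alpha plus IFN-gamma mixture; protective hits raise ATP signal compared with cytokine alone wells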
HEK293 [12] = assay: NOD1 signaling inhibitors, primary screen, cell-based, luminescence, uHTS (AID 1578); type: functional; conditions: Homo sapiens
[13] = test system: Streptococcus sp. 'group A'; assay: growth inhibition of control SK(-) GAS strain, dose response, counter-screen for streptokinase expression inhibitor project, luminescence, kanamycin, BacTiterGlo, confirmation (AID 1900); type: functional, organism-based
HEK293 [14] = assay: cells; type: functional, cell-based; conditions: Homo sapiens
Streptokinase A = target: T2, Streptokinase A (Streptococcus pyogenes serotype M1, UniProt P10520); assay: S. pyogenes streptokinase expression inhibitors, potency, dose response, plasminogen activation absorbance, OD405 (AID 1914); type: functional, Streptococcus pyogenes M1 GAS;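 also: secreted streptokinase activity via plasminogen activation per viability signal from cell pellet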
T2 sequence (P10520 whole entry): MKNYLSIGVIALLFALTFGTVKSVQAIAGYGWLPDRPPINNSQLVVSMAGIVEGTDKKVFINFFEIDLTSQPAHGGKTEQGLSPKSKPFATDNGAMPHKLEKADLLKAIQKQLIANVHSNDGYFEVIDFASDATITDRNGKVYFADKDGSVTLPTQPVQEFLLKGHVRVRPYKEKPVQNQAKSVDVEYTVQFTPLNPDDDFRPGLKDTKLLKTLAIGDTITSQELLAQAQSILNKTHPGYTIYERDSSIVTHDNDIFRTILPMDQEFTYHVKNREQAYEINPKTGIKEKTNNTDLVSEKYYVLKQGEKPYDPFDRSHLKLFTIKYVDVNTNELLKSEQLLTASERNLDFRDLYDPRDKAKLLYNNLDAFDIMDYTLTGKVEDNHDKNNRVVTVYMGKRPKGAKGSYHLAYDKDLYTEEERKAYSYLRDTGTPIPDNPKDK

HEK293 [15] = assay: cells; type: functional, cell-based; conditions: Homo sapiens; remark: listed apart in the source
HEK293 [16] = assay: NOD2 signaling inhibitors in MDP-stimulated cells, cell-based, uHTS, luminescence (AID 2001); type: functional; conditions: Homo sapiens
Streptococcus = assay: Group A Streptococcus viability loss, dose response, counter-screen for streptokinase expression inhibitor project, luminescence, BacTiterGlo (AID 1915); type: functional, organism-based;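 also: potency for reduction of bacterial viability or growth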
CAAX prenyl protease 2 [17] = target: CAAX prenyl protease 2 (Saccharomyces cerevisiae S288c, UniProt Q03530); type: biochemical
Sequence of CAAX prenyl protease 2 (Saccharomyces cerevisiae S288c, UniProt Q03530) (Q03530 whole entry): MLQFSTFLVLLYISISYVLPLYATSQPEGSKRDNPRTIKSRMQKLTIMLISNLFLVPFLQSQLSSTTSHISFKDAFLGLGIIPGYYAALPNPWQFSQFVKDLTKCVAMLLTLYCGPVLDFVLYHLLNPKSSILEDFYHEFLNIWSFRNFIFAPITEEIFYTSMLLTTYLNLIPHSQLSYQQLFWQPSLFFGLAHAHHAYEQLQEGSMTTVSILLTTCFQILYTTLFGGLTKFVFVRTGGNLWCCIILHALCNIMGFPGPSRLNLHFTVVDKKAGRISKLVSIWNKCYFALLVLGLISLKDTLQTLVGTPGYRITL

CAAX prenyl protease 2 [18] = target: CAAX prenyl protease 2 (Homo sapiens, UniProt Q9Y256); assay: human Rce1 protease inhibitors, dose response, biochemical, yeast membranes, quenched-peptide fluorescence, cherry-pick (AID 588849)
Sequence of CAAX prenyl protease 2 (Homo sapiens, UniProt Q9Y256) (Q9Y256 whole entry): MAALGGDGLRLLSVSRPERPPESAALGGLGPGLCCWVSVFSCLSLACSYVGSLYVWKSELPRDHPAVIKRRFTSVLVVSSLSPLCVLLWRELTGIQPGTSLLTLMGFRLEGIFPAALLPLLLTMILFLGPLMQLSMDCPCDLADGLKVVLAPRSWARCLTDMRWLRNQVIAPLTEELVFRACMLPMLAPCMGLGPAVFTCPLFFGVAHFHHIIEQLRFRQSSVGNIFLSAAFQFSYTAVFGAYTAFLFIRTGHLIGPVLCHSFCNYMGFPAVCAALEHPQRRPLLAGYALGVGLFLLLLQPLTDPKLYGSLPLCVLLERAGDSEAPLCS

[19] = target: DNA repair protein RAD52 homolog (Homo sapiens, UniProt P43351); type: functional, biochemical
cells [20] = assay: cells
Cysteine protease ATG4B = Cysteine protease ATG4B (Homo sapiens, UniProt Q9Y4P1); type: functional;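 also: Fluorescence-based dose-response confirmation assay measuring inhibition of ATG4B activity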
Sequence of Cysteine protease ATG4B (Q9Y4P1 whole entry): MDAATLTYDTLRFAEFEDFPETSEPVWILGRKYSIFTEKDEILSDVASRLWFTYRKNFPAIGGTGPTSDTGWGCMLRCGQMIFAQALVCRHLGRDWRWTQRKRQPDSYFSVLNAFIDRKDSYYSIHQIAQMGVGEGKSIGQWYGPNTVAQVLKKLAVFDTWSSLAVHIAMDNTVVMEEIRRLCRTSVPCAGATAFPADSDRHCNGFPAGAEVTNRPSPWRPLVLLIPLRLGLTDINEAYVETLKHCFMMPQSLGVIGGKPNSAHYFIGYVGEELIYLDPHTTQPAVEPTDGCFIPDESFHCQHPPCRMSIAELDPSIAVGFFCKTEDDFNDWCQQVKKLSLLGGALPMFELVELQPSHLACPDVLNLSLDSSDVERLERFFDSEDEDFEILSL

Phospholipase A2 = Phospholipase A2 (Homo sapiens, UniProt P04054); type: functional;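 also: confirmatory dose-response counterscreen on phospholipase A2, testing hits that came from an ultra-high-throughput screen for ATG4B inhibitors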
Sequence of Phospholipase A2 (P04054 whole entry): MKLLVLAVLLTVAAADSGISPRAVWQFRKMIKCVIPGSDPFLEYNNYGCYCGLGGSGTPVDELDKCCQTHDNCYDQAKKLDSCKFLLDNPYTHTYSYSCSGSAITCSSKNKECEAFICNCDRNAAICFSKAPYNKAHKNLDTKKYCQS

Escherichia coli [21] = assay: microbe, parasite or virus in culture
Escherichia coli [22] = assay: microbe, parasite or virus in culture; remark: listed apart in the source
Vero [23] = assay: cells; type: functional; conditions: Chlorocebus sabaeus
CAAX prenyl protease 1 = CAAX prenyl protease 1 (Saccharomyces cerevisiae S288c, UniProt P47154); assay: Ste24 protease inhibitors, dose response, biochemical, S. cerevisiae, plate reader, cherry-pick (AID 488815)
Sequence of CAAX prenyl protease 1 (P47154 whole entry): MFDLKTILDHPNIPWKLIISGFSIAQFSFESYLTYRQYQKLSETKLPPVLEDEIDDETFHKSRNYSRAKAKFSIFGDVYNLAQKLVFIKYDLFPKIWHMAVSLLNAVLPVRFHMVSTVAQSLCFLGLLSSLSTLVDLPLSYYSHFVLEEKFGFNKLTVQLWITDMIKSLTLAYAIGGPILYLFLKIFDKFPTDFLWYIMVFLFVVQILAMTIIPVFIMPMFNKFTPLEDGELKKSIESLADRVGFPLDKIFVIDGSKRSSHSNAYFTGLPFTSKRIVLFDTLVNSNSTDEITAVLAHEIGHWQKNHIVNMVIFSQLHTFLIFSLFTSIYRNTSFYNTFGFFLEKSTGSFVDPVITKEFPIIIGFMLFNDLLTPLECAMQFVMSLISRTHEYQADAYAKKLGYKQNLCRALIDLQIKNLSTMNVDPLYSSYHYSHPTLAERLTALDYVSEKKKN

[24] = target: Peroxisome proliferator-activated receptor gamma/Nuclear receptor coactivator 1 (Homo sapiens, UniProt P37231); assay: TR-FRET dose response biochemical High Throughput Screening assay for agonists of the steroid receptor coactivator 1 (SRC-1) recruitment by the peroxisome proliferator-activated receptor gamma (PPAR gamma): non-selective agonists. [Related pubchem assays (depositor defined):AID1300, AID1808, AID504735, AID631]; type: protein assay
[25] = target: Peroxisome proliferator-activated receptor gamma/Nuclear receptor coactivator 3 (Homo sapiens, UniProt P37231); assay: TR-FRET dose response biochemical High Throughput Screening assay for agonists of the steroid receptor coactivator 3 (SRC-3) recruitment by the peroxisome proliferator-activated receptor gamma (PPAR gamma): non-selective agonists. [Related pubchem assays: 1301 (Confirmation screen.), 1048 (Primary screen.)]; type: functional
Sequence of Peroxisome proliferator-activated receptor gamma/Nuclear receptor coactivator 3 (P37231 whole entry): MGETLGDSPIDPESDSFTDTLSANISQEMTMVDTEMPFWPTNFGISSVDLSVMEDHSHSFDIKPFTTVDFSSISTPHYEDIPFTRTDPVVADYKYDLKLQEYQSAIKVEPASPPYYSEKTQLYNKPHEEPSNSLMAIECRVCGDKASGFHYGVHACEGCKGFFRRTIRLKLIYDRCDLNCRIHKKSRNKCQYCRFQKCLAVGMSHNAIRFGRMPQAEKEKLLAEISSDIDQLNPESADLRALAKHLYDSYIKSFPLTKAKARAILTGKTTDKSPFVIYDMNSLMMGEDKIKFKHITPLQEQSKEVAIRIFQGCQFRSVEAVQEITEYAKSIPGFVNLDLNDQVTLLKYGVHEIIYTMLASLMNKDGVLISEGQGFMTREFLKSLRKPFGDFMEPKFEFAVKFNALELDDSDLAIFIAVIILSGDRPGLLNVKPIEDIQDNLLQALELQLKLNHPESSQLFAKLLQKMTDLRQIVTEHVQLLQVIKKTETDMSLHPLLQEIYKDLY
Sequence of Peroxisome proliferator-activated receptor gamma/Nuclear receptor coactivator 3 (Q9Y6Q9 whole entry, further chain): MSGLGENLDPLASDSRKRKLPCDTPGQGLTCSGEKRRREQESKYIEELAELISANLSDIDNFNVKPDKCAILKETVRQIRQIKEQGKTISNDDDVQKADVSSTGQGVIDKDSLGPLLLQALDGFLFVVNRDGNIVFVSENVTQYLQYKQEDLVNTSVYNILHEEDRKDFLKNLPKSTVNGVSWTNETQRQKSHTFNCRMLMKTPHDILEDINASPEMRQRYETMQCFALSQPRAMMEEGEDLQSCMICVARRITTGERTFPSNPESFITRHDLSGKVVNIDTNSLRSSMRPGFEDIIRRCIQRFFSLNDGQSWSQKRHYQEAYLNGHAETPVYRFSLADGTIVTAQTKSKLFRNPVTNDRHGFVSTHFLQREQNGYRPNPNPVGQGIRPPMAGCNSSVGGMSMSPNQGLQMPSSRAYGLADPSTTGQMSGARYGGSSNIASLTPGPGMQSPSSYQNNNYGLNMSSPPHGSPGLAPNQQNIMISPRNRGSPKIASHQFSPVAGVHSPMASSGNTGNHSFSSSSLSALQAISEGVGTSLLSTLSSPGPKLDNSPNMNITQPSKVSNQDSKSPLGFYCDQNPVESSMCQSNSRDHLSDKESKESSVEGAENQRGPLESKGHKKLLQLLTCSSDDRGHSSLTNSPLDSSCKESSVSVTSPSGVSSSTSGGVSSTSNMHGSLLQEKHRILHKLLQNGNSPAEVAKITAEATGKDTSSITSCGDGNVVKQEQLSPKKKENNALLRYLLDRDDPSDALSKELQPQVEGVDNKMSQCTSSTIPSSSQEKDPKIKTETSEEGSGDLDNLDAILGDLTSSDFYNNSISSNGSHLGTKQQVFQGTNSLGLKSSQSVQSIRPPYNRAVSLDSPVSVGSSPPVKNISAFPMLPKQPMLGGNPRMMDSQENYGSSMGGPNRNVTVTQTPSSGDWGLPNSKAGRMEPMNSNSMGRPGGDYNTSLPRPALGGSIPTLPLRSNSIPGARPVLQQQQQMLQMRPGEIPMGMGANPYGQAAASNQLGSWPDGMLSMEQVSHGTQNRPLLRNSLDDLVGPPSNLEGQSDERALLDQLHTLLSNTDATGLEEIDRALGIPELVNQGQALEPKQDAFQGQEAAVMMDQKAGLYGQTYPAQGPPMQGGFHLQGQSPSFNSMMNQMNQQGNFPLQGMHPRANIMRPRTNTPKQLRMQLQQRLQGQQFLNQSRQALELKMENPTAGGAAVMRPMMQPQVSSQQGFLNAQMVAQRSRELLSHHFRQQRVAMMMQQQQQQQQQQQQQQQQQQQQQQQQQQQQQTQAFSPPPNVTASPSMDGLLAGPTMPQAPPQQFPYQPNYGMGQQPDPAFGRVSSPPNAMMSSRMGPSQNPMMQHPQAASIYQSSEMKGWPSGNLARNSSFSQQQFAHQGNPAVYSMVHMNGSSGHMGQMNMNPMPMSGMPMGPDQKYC

[26] = target: Peroxisome proliferator-activated receptor gamma/Nuclear receptor coactivator 2 (Homo sapiens, UniProt P37231); assay: TR-FRET dose response biochemical High Throughput Screening assay for agonists of the steroid receptor coactivator 2 (SRC-2) recruitment by the peroxisome proliferator-activated receptor gamma (PPAR gamma): non-selective agonists. [Related pubchem assays: 1297, 1032 ]; type: functional
Vero [27] = assay: cells; type: functional, cell-based; conditions: Chlorocebus sabaeus
[28] = target: Serine/threonine-protein phosphatase (Candida dubliniensis (strain CD36 / CBS 7987 / NCPF 3949 / NRRLY-17841) (Yeast), UniProt B9W6M3); assay: calcineurin pathway inhibitors in yeast reporter, dose response, S. cerevisiae, CDRE-lacZ, luminescence, secondary (AID 2388); type: functional, cell-based;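 also: yeast reporter cells carrying a calcineurin-responsive lacZ construct stimulated with calcium chloride; luminescent beta-galactosidase reporter signal in whole cells rather than isolated phosphatase activity; potency for inhibition where a drop in reporter signal means calcineurin blockade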
[29] = Luminescence Cell-Based Dose Retest to Confirm Inhibitors of Cancer Stem Cells. [Related pubchem assays (depositor defined):AID2717, AID2721]; type: functional; conditions: Homo sapiens
[30] = target: ATP-dependent molecular chaperone HSP82 (Candida albicans (strain WO-1) (Yeast), UniProt C4YTQ8); assay: loss of DOC-induced GRE-beta-galactosidase reporter signal, dose response, Hsp90 inhibitor project, S. cerevisiae, luminescence (AID 2400); type: functional, cell-based;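 also: beta-galactosidase luminescence from glucocorticoid response element reporter as proxy for Hsp90 function; inhibitor potency where signal loss means Hsp90 inhibition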
Sequence of ATP-dependent molecular chaperone HSP82 (C4YTQ8 whole entry): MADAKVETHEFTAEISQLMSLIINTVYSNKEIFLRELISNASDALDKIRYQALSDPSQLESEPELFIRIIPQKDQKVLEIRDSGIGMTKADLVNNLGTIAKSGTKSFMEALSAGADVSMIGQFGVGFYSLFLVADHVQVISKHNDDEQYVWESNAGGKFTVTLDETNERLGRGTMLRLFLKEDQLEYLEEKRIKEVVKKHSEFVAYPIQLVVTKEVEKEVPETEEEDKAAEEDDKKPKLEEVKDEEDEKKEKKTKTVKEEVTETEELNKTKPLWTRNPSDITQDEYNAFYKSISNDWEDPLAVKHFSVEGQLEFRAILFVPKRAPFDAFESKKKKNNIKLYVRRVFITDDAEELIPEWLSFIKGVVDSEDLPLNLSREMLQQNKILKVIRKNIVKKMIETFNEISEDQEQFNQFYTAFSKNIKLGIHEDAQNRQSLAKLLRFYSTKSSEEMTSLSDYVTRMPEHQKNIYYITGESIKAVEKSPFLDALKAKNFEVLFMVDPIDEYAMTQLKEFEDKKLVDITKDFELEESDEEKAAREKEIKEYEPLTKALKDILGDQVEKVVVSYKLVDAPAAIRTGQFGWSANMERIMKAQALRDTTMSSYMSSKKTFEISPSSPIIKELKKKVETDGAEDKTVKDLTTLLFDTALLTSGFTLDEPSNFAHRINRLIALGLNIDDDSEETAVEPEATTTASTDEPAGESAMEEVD

SMILES: COc1ccc2c(c1)C=C(CN1CCC(CO)(CCc3ccccc3)CC1)CO2
- EC50 [1]: 2.11 µM (active)
- EC50 [2]: 67.7 µM (inactive)
- EC50 (Mu-type opioid receptor): 85.9 µM (inactive)
- EC50 [3]: > 92.5 µM (inactive)

SMILES: CCC(=O)NC(c1cccs1)c1ccc2cccnc2c1O (stereo unspecified)
- EC50 [4]: 3.59 µM (active)
- EC50 (cells [5]): 8.02 µM (active)
- EC50 [6]: 1.39 µM (active)
- EC50 [7]: 480 nM (active)
- EC50 (cells [8]): > 350 µM (not active)
- EC50 [9]: 1.48 µM (active)
- IC50 [10]: > 80 µM (inactive)
- AC50 [11]: 7.9 µM (active)
- AC50 (INS1): 860 nM (active)

SMILES: CCC(C)(C)c1ccc(OCCCC[n+]2cccc(C)c2)c(C(C)(C)CC)c1
- EC50 (HEK293 [12]): 8.28 µM (active)
- EC50 [13]: 6.58 µM (active)
- IC50 (HEK293 [14]): 4.11 µM (active)
- EC50 (Streptokinase A): 14.1 µM (active)
- IC50 (HEK293 [15]): 7.99 µM (active)
- IC50 (HEK293 [16]): 3.36 µM (active)
- EC50 [7]: < 100 nM (active)
- EC50 [9]: > 30 µM (not active)
- EC50 (Streptococcus): 14.9 µM (active)
- AC50 (CAAX prenyl protease 2 [17]): 10.5 µM (active)
- AC50 (CAAX prenyl protease 2 [18]): 22 µM (active)
- AC50 [19]: 7.32 µM (active)
- EC50 (cells [20]): 128 nM (active)

SMILES: CCOC(=O)c1c(C)[nH]c(C(=O)COC(=O)COc2ccccc2C=O)c1C
- IC50 (Cysteine protease ATG4B): 10.5 µM (active)
- IC50 (Phospholipase A2): 9.64 µM (active)

SMILES: O=C(NCc1ccccc1)c1ccc(CS(=O)(=O)c2ccccc2)o1
- AC50 (Escherichia coli [21]): 28.6 µM (active)

SMILES: CC(C)(C)OC(=O)N1CCCC(C(=O)Nc2cccc(C(=O)NCCc3ccccc3)c2)C1 (stereo unspecified)
- AC50 (Escherichia coli [21]): 21.1 µM (active)
- AC50 (Escherichia coli [22]): 322 µM (active)

SMILES: CCOc1ccc(Oc2c(/C=N/NC(=O)COc3ccccc3OC)c(C)nn2-c2ccccc2)cc1
- CC50 (Vero [23]): > 25 µM (active)

SMILES: CNC(=S)N/N=C/c1cn(Cc2c(F)cccc2Cl)c2ccccc12
- AC50 (CAAX prenyl protease 2 [17]): 0.818 µM (active)
- AC50 (CAAX prenyl protease 1): 7.58 µM (active)
- AC50 (CAAX prenyl protease 2 [18]): 16 µM (active)

SMILES: Sc1nnc(-c2ccccn2)n1/N=C/c1ccc(-c2ccccc2Br)o1
- EC50 [24]: 2.75 µM (active)
- EC50 [25]: > 79.4 µM (not active)
- EC50 [26]: 2.83 µM (active)
- IC50 (Vero [27]): 23.4 µM (active)

SMILES: Cc1cccc(C(=O)NNC2=C(C(=O)C(F)(F)F)CCC2)c1O
- EC50 [4]: > 160 µM (inactive)
- EC50 [6]: 0.53 µM (active)
- EC50 [28]: > 180 µM (inactive)
- AC50 [29]: 3.16 µM (active)
- EC50 [30]: 35.6 µM (active)

SMILES: CCOC(=O)C(C)Sc1nc2ccccc2c(=O)n1CC1CCCCC1 (stereo unspecified)
- IC50 (Cysteine protease ATG4B): 2.36 µM (active)
- IC50 (Phospholipase A2): 2.05 µM (active)
